Experimental data as given in article PMC12298648, “An Evaluation of the Cytotoxicity and Safety Profile of Usnic Acid for a Broad Panel of Human Cancers and Normal Cells with Respect to Its Enantiospecificity” (Molecules, 2025).
Converted amounts (≈) assume the structure as drawn. Read-outs that look alike come from different tables or passages of the source.

Experiments:
C8D1A = assay: MTT viability assay, normal astrocytes C8D1A; format: cell-based, murine; conditions: C8D1A, 24 h
Source text: (§1) Cell lines of different origins were used in the study and grouped as follows: prostate panel (human prostate carcinomas: DU145, derived from metastatic site: brain; grade IV PC3, derived from metastatic site: bone; LNCaP, derived from the metastatic site: lymph node; prostate epithelial, PNT2), colon panel (colorectal adenocarcinomas: HT29, originating from a primary tumor; Duke’s type C DLD-1, with the potential to lymph node metastasis; highly metastatic HCT116; colon epithelial cells CCD 841 CoN), thyroid panel (follicular thyroid carcinoma FTC133, anaplastic thyroid carcinoma 8505C, papillary thyroid carcinoma TPC-1, normal thyroid follicular epithelial Nthy-ori 3–1), breast panel (ER-positive breast adenocarcinoma MCF7, ER-negative breast adenocarcinoma MDA-MB-231, breast epithelial MCF10A), brain panel (neuroblastoma SH-SY5Y, glioblastoma U-87 MG, murine astrocytes C8D1A). All cell lines were purchased from Merck (Darmstadt, Germany).
(§2) Cells were grown under standard conditions (37 °C, 5% CO2) and culture media (DMEM/F12 for PNT2, PC3, FTC133, 8505 C, MDA-MB-231, TPC-1; DMEM Low Glucose for DU145; DMEM High Glucose for HCT116, DLD-1, SH-SY5Y, U87MG, C8D1A; MEM with NEAA for MCF7; MEM for CCD 841 CoN; McCoy’s for HT29; RPMI1640 with sodium pyruvate for LNCaP; DMEM/F12 with 20 ng/mL epidermal growth factor (EGF), 10 μg/mL insulin, 0.5 μg/mL hydrocortisone, 100 ng/mL cholera toxin) for MCF10A), supplemented with 10% fetal bovine serum (FBS) or 5% donor horse serum for MCF10A, and 1% antibiotics solution (10,000 U penicillin and 10 mg streptomycin/mL). The tested substances were prepared as 10 mg/mL stock solutions in DMSO and further diluted in the culture media to the working concentrations. Cells were treated with UA enantiomers at the concentration range of 0–50 µg/mL. The influence of DMSO on cell viability was also examined, with the final concentration […], and no toxic effect was noted.
(§3) The cells were seeded onto 96-well plates at a density of 1.5 × 10^4 cells/well. After 24 h UA enantiomers were added. Cell viability was determined after 24, 48, and 72 h by the MTT assay, as described previously. Doxorubicin was used as a reference cytostatic drug. All analyses were performed in triplicate; cell viability was expressed as % of control, untreated cells (mean ± SD), and IC50 values (concentration at which cell viability is inhibited by 50%), if possible.

MCF10A = assay: MTT viability assay, normal breast epithelial cells; format: cell-based, human; conditions: for IC50: Homo sapiens, MCF-10A, MCF10A normal cells; for Cell viability: MCF10A, 24 h
Source text: as §1, §2, §3

LNCaP = assay: MTT viability assay, LNCaP prostate cancer cells; format: cell-based, human; conditions: for Cell viability: 24 h; for IC50: Homo sapiens
Source text: as §1, §2, §3

8505C = assay: MTT viability assay, 8505C anaplastic thyroid carcinoma cells; format: cell-based, human; conditions: for Cell viability: 24 h; for IC50: Homo sapiens
Source text: as §1, §2, §3

U87MG = assay: MTT viability assay, glioblastoma U87MG cells; format: cell-based, human; conditions: 24 h
Source text: as §1, §2, §3

TPC-1 = assay: MTT viability assay, TPC-1 papillary thyroid carcinoma cells; format: cell-based, human; conditions: for IC50: Homo sapiens, TPC1; for Cell viability: TPC-1, 24 h
Source text: as §1, §2, §3
(§4) The selectivity index (SI) was calculated, if possible, by dividing the IC50 value obtained for non-cancerous cells line by the IC50 values obtained for appropriate cancer cell line, as described previously. […] The values above 3 indicate good selectivity.

CCD 841 CoN = assay: MTT viability assay, normal colon epithelial cells; format: cell-based, human; conditions: for Cell viability: CCD 841 CoN, 24 h; for IC50: Homo sapiens, CCD-841CoN
Source text: as §1, §2, §3

PC3 = assay: MTT viability assay, PC3 prostate cancer cells; format: cell-based, human; conditions: for IC50: Homo sapiens, PC-3; for Cell viability: PC3, 24 h
Source text: as §1, §2, §3, §4

FTC133 = assay: MTT viability assay, FTC133 follicular thyroid carcinoma cells; format: cell-based, human; conditions: for Cell viability: FTC-133, 24 h; for IC50: Homo sapiens, FTC-133
Source text: as §1, §2, §3, §4

HT29 cells = conditions: HT29, 48 h, cited from earlier work

For `CC(=O)C1=C(O)C=C2Oc3c(C(C)=O)c(O)c(C)c(O)c3[C@]2(C)C1=O` [UA(−), (−)-usnic acid], the Cell viability (C8D1A; 2.5 µg/mL) was 100.83 % of control, the Cell viability (C8D1A; 5 µg/mL) was 99.17 % of control and the Cell viability (C8D1A; 10 µg/mL) was 95.67 % of control. The Cell viability (C8D1A; 20 µg/mL) was 96.00 % of control, the Cell viability (C8D1A; 30 µg/mL) was 88.42 % of control and the Cell viability (C8D1A; 40 µg/mL) was 90.58 % of control. The Cell viability (C8D1A; 50 µg/mL) was 104.75 % of control, the IC50 (MCF10A; 48 h) was greater than 50 µg/mL and the IC50 (MCF10A; 72 h) was greater than 50 µg/mL. For the same molecule, the Cell viability (MCF10A; 2.5 µg/mL) was 102.83 % of control, the Cell viability (MCF10A; 5 µg/mL) was 100.30 % of control and the Cell viability (MCF10A; 10 µg/mL) was 101.52 % of control. For the same molecule, the Cell viability (MCF10A; 20 µg/mL) was 98.59 % of control, the Cell viability (MCF10A; 30 µg/mL) was 100.10 % of control and the Cell viability (MCF10A; 40 µg/mL) was 103.54 % of control. The Cell viability (MCF10A; 50 µg/mL) was 99.39 % of control, the Cell viability (LNCaP; 2.5 µg/mL) was 100.45 % of control and the Cell viability (LNCaP; 5 µg/mL) was 98.18 % of control. For the same molecule, the Cell viability (LNCaP; 10 µg/mL) was 88.48 % of control, the Cell viability (LNCaP; 20 µg/mL) was 85.30 % of control and the Cell viability (LNCaP; 30 µg/mL) was 81.97 % of control. The Cell viability (LNCaP; 40 µg/mL) was 79.09 % of control, the Cell viability (LNCaP; 50 µg/mL) was 89.39 % of control and the IC50 (LNCaP; 48 h) was greater than 50 µg/mL. For the same molecule, the IC50 (LNCaP; 72 h) was greater than 50 µg/mL, the Cell viability (8505C; 2.5 µg/mL) was 105.18 % of control and the Cell viability (8505C; 5 µg/mL) was 107.97 % of control. The Cell viability (8505C; 10 µg/mL) was 100.80 % of control, the Cell viability (8505C; 20 µg/mL) was 100.00 % of control and the Cell viability (8505C; 30 µg/mL) was 102.79 % of control. For the same molecule, the Cell viability (8505C; 40 µg/mL) was 103.98 % of control, the Cell viability (8505C; 50 µg/mL) was 94.42 % of control and the IC50 (8505C; 48 h) was greater than 50 µg/mL. The IC50 (8505C; 72 h) was greater than 50 µg/mL, the Cell viability (U87MG; 2.5 µg/mL) was 102.34 % of control and the Cell viability (U87MG; 5 µg/mL) was 102.19 % of control. The Cell viability (U87MG; 10 µg/mL) was 101.69 % of control, the Cell viability (U87MG; 20 µg/mL) was 101.59 % of control and the Cell viability (U87MG; 30 µg/mL) was 111.54 % of control. The Cell viability (U87MG; 40 µg/mL) was 106.02 % of control, the Cell viability (U87MG; 50 µg/mL) was 98.56 % of control and the IC50 (TPC-1; TPC-1, 48 h) was greater than 50 µg/mL. For the same molecule, the IC50 (TPC-1; TPC-1, 72 h) was 39.2 µg/mL (≈ 114 µM), the “selectivity index (SI)” value (TPC-1; IC50 Nthy ori 3-1 / IC50 TPC-1, 72 h) was 0.74 and the Cell viability (TPC-1; 2.5 µg/mL) was 96.85 % of control. The Cell viability (TPC-1; 5 µg/mL) was 104.40 % of control, the Cell viability (TPC-1; 10 µg/mL) was 96.79 % of control and the Cell viability (TPC-1; 20 µg/mL) was 93.49 % of control. The Cell viability (TPC-1; 30 µg/mL) was 91.95 % of control, the Cell viability (TPC-1; 40 µg/mL) was 92.26 % of control and the Cell viability (TPC-1; 50 µg/mL) was 92.38 % of control. The Cell viability (CCD 841 CoN; 2.5 µg/mL) was 98.61 % of control, the Cell viability (CCD 841 CoN; 5 µg/mL) was 98.89 % of control and the Cell viability (CCD 841 CoN; 10 µg/mL) was 96.39 % of control. The Cell viability (CCD 841 CoN; 20 µg/mL) was 99.72 % of control, the Cell viability (CCD 841 CoN; 30 µg/mL) was 96.11 % of control and the Cell viability (CCD 841 CoN; 40 µg/mL) was 96.94 % of control. For the same molecule, the Cell viability (CCD 841 CoN; 50 µg/mL) was 93.06 % of control, the IC50 (CCD 841 CoN; 48 h) was greater than 50 µg/mL and the IC50 (CCD 841 CoN; 72 h) was greater than 50 µg/mL. For the same molecule, the IC50 (PC3; PC3, 48 h) was 37.8 µg/mL (≈ 110 µM), the IC50 (PC3; PC3, 72 h) was 34.8 µg/mL (≈ 101 µM) and the “selectivity index (SI)” value (PC3; IC50 PNT2 / IC50 PC3, 48 h) was 0.93. For the same molecule, the “selectivity index (SI)” value (PC3; IC50 PNT2 / IC50 PC3, 72 h) was 0.79, the Cell viability (PC3; 2.5 µg/mL) was 102.94 % of control and the Cell viability (PC3; 5 µg/mL) was 94.68 % of control. The Cell viability (PC3; 10 µg/mL) was 91.59 % of control, the Cell viability (PC3; 20 µg/mL) was 89.10 % of control and the Cell viability (PC3; 30 µg/mL) was 76.52 % of control. For the same molecule, the Cell viability (PC3; 40 µg/mL) was 69.15 % of control, the Cell viability (PC3; 50 µg/mL) was 68.91 % of control and the Cell viability (FTC133; 2.5 µg/mL) was 108.51 % of control. The Cell viability (FTC133; 5 µg/mL) was 106.14 % of control, the Cell viability (FTC133; 10 µg/mL) was 87.63 % of control and the Cell viability (FTC133; 20 µg/mL) was 89.56 % of control. For the same molecule, the Cell viability (FTC133; 30 µg/mL) was 93.33 % of control, the Cell viability (FTC133; 40 µg/mL) was 86.67 % of control and the Cell viability (FTC133; 50 µg/mL) was 83.25 % of control. The IC50 (FTC133; FTC133, 48 h) was greater than 50 µg/mL, the IC50 (FTC133; FTC133, 72 h) was 35.3 µg/mL (≈ 103 µM) and the “selectivity index (SI)” value (FTC133; IC50 Nthy ori 3-1 / IC50 FTC133, 72 h) was 0.83. For the same molecule, the IC50 (HT29 cells; recalculated from µM by the authors) was 18.9 µg/mL and the IC50 (HT29 cells; read-out: IC50) was 55 µM.
